# Tested on: BT-474
# Assay: normalised viability (% of control), CellTiter-Blue; higher = more viable cells (about 100 = DMSO control)
# Settings: 1000 nM; incubation time: 72 h
# Procedure, shortened: (§1)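 Vehicle (100) and a positive kill control (0) anchored the normalisation of each plate, and Z'-factor was used for quality control. Breast cancer cell lines in 20 µl suspension were incubated 72 h over compound in 5 µl medium in 384-well plates, followed by CellTiter-Blue at 560/590 nm. The value is normalised viability at a single listed concentration of the series.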
row,SMILES,normalised viability [%]
1,Nc1nc(F)nc2c1ncn2[C@@H]1O[C@H](CO)[C@@H](O)[C@@H]1O [Fludarabine],97.4
2,O=C(O)C1(C(=O)O)CCC1.[NH2-].[NH2-].[Pt+2] [Carboplatin],121
3,N#Cc1ccc(C(c2ccc(C#N)cc2)n2cncn2)cc1 [Letrozole],109
4,C1CN1c1nc(N2CC2)nc(N2CC2)n1 [Triethylenemelamine],126
5,CCCS(=O)(=O)Nc1ccc(F)c(C(=O)c2c[nH]c3ncc(-c4ccc(Cl)cc4)cc23)c1F [Vemurafenib],120
6,O=C(O)C(=O)O.[NH-][C@@H]1CCCC[C@H]1[NH-].[Pt+2] [Oxaliplatin],118
7,Cc1ccc(-c2cc(C(F)(F)F)nn2-c2ccc(S(N)(=O)=O)cc2)cc1 [Celecoxib],97.3
8,NCCCNCCSP(=O)(O)O [Amifostine],94.5
9,COc1cc2c(Oc3ccc4[nH]c(C)cc4c3F)ncnc2cc1OCCCN1CCCC1 [Cediranib],91.1
10,C[C@H]1C[C@@H]2[C@H]([C@@H](O)C[C@@]3(C)[C@H]2CC[C@]3(O)C(=O)CO)[C@@]2(C)C=CC(=O)C=C12 [Methylprednisolone],105
11,CCc1cncnc1N1CCN(Cc2nc3ccc(C(F)(F)F)cc3[nH]2)CC1,118
12,C=CC(=O)N1CCC[C@@H](n2nc(-c3ccc(Oc4ccccc4)cc3)c3c(N)ncnc32)C1,42.1
13,Oc1ncc(N(CCCl)CCCl)c(O)n1 [Uracil mustard],120
14,Cc1cnc(NC(=O)Nc2cc(Br)c(C)cc2OC[C@@H]2CNCCO2)cn1,107
15,CC1=C(/C=C/C(C)=C/C=C/C(C)=C/C(=O)O)C(C)(C)CCC1 [Tretinoin],111

# Same assay, conditions: 10000 nM; incubation time: 72 h
row,SMILES,normalised viability [%]
1,Nc1nc(F)nc2c1ncn2[C@@H]1O[C@H](CO)[C@@H](O)[C@@H]1O [Fludarabine],103
2,O=C(O)C1(C(=O)O)CCC1.[NH2-].[NH2-].[Pt+2] [Carboplatin],113
3,N#Cc1ccc(C(c2ccc(C#N)cc2)n2cncn2)cc1 [Letrozole],109
4,C1CN1c1nc(N2CC2)nc(N2CC2)n1 [Triethylenemelamine],130
5,CCCS(=O)(=O)Nc1ccc(F)c(C(=O)c2c[nH]c3ncc(-c4ccc(Cl)cc4)cc23)c1F [Vemurafenib],107
6,O=C(O)C(=O)O.[NH-][C@@H]1CCCC[C@H]1[NH-].[Pt+2] [Oxaliplatin],83.5
7,Cc1ccc(-c2cc(C(F)(F)F)nn2-c2ccc(S(N)(=O)=O)cc2)cc1 [Celecoxib],105
8,NCCCNCCSP(=O)(O)O [Amifostine],111
9,C[C@H]1C[C@@H]2[C@H]([C@@H](O)C[C@@]3(C)[C@H]2CC[C@]3(O)C(=O)CO)[C@@]2(C)C=CC(=O)C=C12 [Methylprednisolone],112
10,CCc1cncnc1N1CCN(Cc2nc3ccc(C(F)(F)F)cc3[nH]2)CC1,83.7
11,Oc1ncc(N(CCCl)CCCl)c(O)n1 [Uracil mustard],116
12,CC1=C(/C=C/C(C)=C/C=C/C(C)=C/C(=O)O)C(C)(C)CCC1 [Tretinoin],115

# Tested on: HCC1143
# Assay: as above
# Settings: 1 nM; incubation time: 72 h
# Procedure, shortened: as §1
row,SMILES,normalised viability [%]
1,COc1cc2c(Oc3ccc4[nH]c(C)cc4c3F)ncnc2cc1OCCCN1CCCC1 [Cediranib],128
2,C=CC(=O)N1CCC[C@@H](n2nc(-c3ccc(Oc4ccccc4)cc3)c3c(N)ncnc32)C1,76
3,Cc1cnc(NC(=O)Nc2cc(Br)c(C)cc2OC[C@@H]2CNCCO2)cn1,97.9

# Same assay, conditions: 10 nM; incubation time: 72 h
row,SMILES,normalised viability [%]
1,Nc1nc(F)nc2c1ncn2[C@@H]1O[C@H](CO)[C@@H](O)[C@@H]1O [Fludarabine],75.8
2,O=C(O)C1(C(=O)O)CCC1.[NH2-].[NH2-].[Pt+2] [Carboplatin],79.8
3,N#Cc1ccc(C(c2ccc(C#N)cc2)n2cncn2)cc1 [Letrozole],85.4
4,C1CN1c1nc(N2CC2)nc(N2CC2)n1 [Triethylenemelamine],97.8
5,CCCS(=O)(=O)Nc1ccc(F)c(C(=O)c2c[nH]c3ncc(-c4ccc(Cl)cc4)cc23)c1F [Vemurafenib],95.8
6,O=C(O)C(=O)O.[NH-][C@@H]1CCCC[C@H]1[NH-].[Pt+2] [Oxaliplatin],82.2
7,Cc1ccc(-c2cc(C(F)(F)F)nn2-c2ccc(S(N)(=O)=O)cc2)cc1 [Celecoxib],90.3
8,NCCCNCCSP(=O)(O)O [Amifostine],79.2
9,C[C@H]1C[C@@H]2[C@H]([C@@H](O)C[C@@]3(C)[C@H]2CC[C@]3(O)C(=O)CO)[C@@]2(C)C=CC(=O)C=C12 [Methylprednisolone],89.8
10,CCc1cncnc1N1CCN(Cc2nc3ccc(C(F)(F)F)cc3[nH]2)CC1,103
11,Oc1ncc(N(CCCl)CCCl)c(O)n1 [Uracil mustard],78.4
12,CC1=C(/C=C/C(C)=C/C=C/C(C)=C/C(=O)O)C(C)(C)CCC1 [Tretinoin],86.2

# Same assay, conditions: 100 nM; incubation time: 72 h
row,SMILES,normalised viability [%]
1,COc1cc2c(Oc3ccc4[nH]c(C)cc4c3F)ncnc2cc1OCCCN1CCCC1 [Cediranib],120
2,C=CC(=O)N1CCC[C@@H](n2nc(-c3ccc(Oc4ccccc4)cc3)c3c(N)ncnc32)C1,79
3,Cc1cnc(NC(=O)Nc2cc(Br)c(C)cc2OC[C@@H]2CNCCO2)cn1,90

# Same assay, conditions: 1000 nM; incubation time: 72 h
row,SMILES,normalised viability [%]
1,Nc1nc(F)nc2c1ncn2[C@@H]1O[C@H](CO)[C@@H](O)[C@@H]1O [Fludarabine],80
2,O=C(O)C1(C(=O)O)CCC1.[NH2-].[NH2-].[Pt+2] [Carboplatin],87.1
3,N#Cc1ccc(C(c2ccc(C#N)cc2)n2cncn2)cc1 [Letrozole],90.7
4,C1CN1c1nc(N2CC2)nc(N2CC2)n1 [Triethylenemelamine],102
5,CCCS(=O)(=O)Nc1ccc(F)c(C(=O)c2c[nH]c3ncc(-c4ccc(Cl)cc4)cc23)c1F [Vemurafenib],102
6,O=C(O)C(=O)O.[NH-][C@@H]1CCCC[C@H]1[NH-].[Pt+2] [Oxaliplatin],94.2
7,Cc1ccc(-c2cc(C(F)(F)F)nn2-c2ccc(S(N)(=O)=O)cc2)cc1 [Celecoxib],95.5
8,NCCCNCCSP(=O)(O)O [Amifostine],84
9,COc1cc2c(Oc3ccc4[nH]c(C)cc4c3F)ncnc2cc1OCCCN1CCCC1 [Cediranib],112
10,C[C@H]1C[C@@H]2[C@H]([C@@H](O)C[C@@]3(C)[C@H]2CC[C@]3(O)C(=O)CO)[C@@]2(C)C=CC(=O)C=C12 [Methylprednisolone],111

# From the supplement of paper PMC4862054
